# Where “and” joins values, the source holds several entries; their conditions need not be identical. Identical values can stand only once.
# Target: Nonstructural protein 3 (Zika virus, UniProt A0A024AXB9)
# Experiment: Functional biochemical assay to identify treatments for viral infectious disease that targets Zika NS2B-NS3 protease. Utilizing a direct enzyme activity measurement method, reading the fluorescence intensity is used to characterize the relative potency of inhibitors as IC50.
# Set-up: species or system PRVABC59
# Sequence of Nonstructural protein 3 (A0A024AXB9 whole entry): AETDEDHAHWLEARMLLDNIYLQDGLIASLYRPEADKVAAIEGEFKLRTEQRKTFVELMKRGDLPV
row,SMILES,IC50
1,O=C(Nc1cc(Cl)cc(C(=O)Nc2ccc([C@]34CNC[C@H]3C4)cc2)c1)OCc1ccccc1,21.2 µM
2,c1cncc(CC2CN(Cc3n[nH]c4ccccc34)C2)c1,> 99.5 µM
3,O=C(Nc1ccc2c(c1)OCCNC2)c1cc(Cl)cc2[nH]ncc12,1.66 µM
4,NCc1cc(NC(=O)c2cc(Cl)cc(NC(=O)OCc3ccccc3)c2)cc(C2=CC[C@H](C(=O)O)CC2)c1,14.6 µM
5,O=C1Cc2c(cccc2C(=O)N[C@H]2C[C@H](c3ccon3)C2)N1,> 25 µM
6,N#C[C@H](Nc1ccc2c(c1)CNC2)c1n[nH]c2cc(C(F)(F)F)ccc12,10.3 µM
7,O=C(O)c1cc(Cl)ccc1NS(=O)(=O)c1ccc(OCc2cccnc2)cc1,> 99.5 µM
8,CNC(=O)[C@H](Nc1ccc2c(c1)CNC2)c1cc(Cl)cc2[nH]ncc12,0.075 µM and 0.05 µM
9,COC(=O)Cc1ccccc1-c1ccc(S(=O)(=O)Nc2ccc(Cl)cc2C(=O)O)cc1,> 99.5 µM
10,O=C(N[C@@H](C(=O)NC1CCNCC1)c1ccc(OCc2ccccc2)cc1)OCc1ccccc1,> 99.5 µM
11,O=S(=O)(Nc1cccc(-c2nnn[nH]2)c1)c1cc(Cl)cc(C(F)(F)F)c1,> 99.5 µM
12,O=C(Nc1cc(Cl)cc(C(=O)Nc2ccc3c(c2)C[C@H](F)C3)c1)OCc1ccccc1,> 99.5 µM
13,NCC12CC(NC(=O)c3cc(Cl)cc(NC(=O)OCc4ccccc4)c3)(CCO1)C2,> 99.5 µM
14,NCc1cccc(NC(=O)[C@@H](NC(=O)OCc2ccccc2)C2CCCCC2)c1,> 99.5 µM
15,CN(C)Cc1ccc(N2CCN(Cc3c[nH]c4ccccc34)CC2)nc1,> 99.5 µM
16,OC1CCN(Cc2c[nH]c3ccccc23)CC1,> 99.5 µM
17,O=C(O)c1cc(Cl)ccc1S(=O)(=O)Nc1ccc(Oc2ccccn2)cc1,> 99.5 µM
18,CC(C)Oc1cncc(N2CC[C@@H](CO)C2)c1,> 99.5 µM
19,CC(C)[C@H](NC(=O)c1cc(Cl)cc(NC(=O)OCc2ccccc2)c1)C(=O)O,> 99.5 µM
20,Brc1cnn(C2CCN(Cc3csnn3)CC2)c1,> 99.5 µM
21,O=C(Nc1ccc2c(c1)CNC2)c1ccc2cc[nH]c2c1,> 25 µM
22,CS(=O)(=O)Nc1cc(Cl)cc(C(=O)Nc2cccc(CN)c2)c1,> 99.5 µM
23,O=C1c2c(O)ccc([N+](=O)[O-])c2C(=O)c2c([N+](=O)[O-])ccc(O)c21,57.1 µM
24,O=C(O)c1cc(Cl)ccc1S(=O)(=O)N[C@H]1CC[C@H](Oc2cnccn2)CC1,> 99.5 µM

row,SMILES,IC50
1,COC(=O)[C@@H](C)NC(=O)c1cc(Cl)ccc1NS(=O)(=O)c1ccc(Oc2ccccc2Cl)cc1,> 99.5 µM
2,O=C(Nc1cc(Cl)cc(C(=O)Nc2cccc3c2CNC3)c1)OCc1ccccc1,75.6 µM
3,NCc1cccc(NC(=O)c2cccn3cc(CN4CCCC4)nc23)c1,16.4 µM
4,NCc1ccccc1C1CCN(C(=O)[C@H]2CCN3CC[C@H]2C3)CC1,> 99.5 µM
5,CCn1ccnc(N2CCC[C@H]2C(=O)O)c1=O,> 99.5 µM
6,O=C(Nc1cc(Cl)cc(C(=O)N[C@H](c2nn[nH]n2)C2CNC2)c1)OCc1ccccc1,> 99.5 µM
7,Cc1c(F)cc(C(=O)Nc2cccc(CN)c2)c(F)c1NC(=O)OCc1ccccc1,63.9 µM
8,CCCC[C@H](NC(C)=O)C(=O)N[C@H](C(=O)NCc1ccc(C(N)=O)cc1)c1ccc(OCc2ccccc2)cc1,> 99.5 µM
9,Cn1cc2cc(Cl)cc(C(=O)Nc3ccc4c(c3)CNC4)c2n1,0.214 µM
10,NC(=O)c1cn(C[C@H]2CCCN2c2ccnc3ccccc23)nn1,> 99.5 µM
11,O=C(Nc1cc(Cl)cc([C@H]2C[C@@H]2c2cccc(C3CCNCC3)c2)c1)OCc1ccccc1,2.64 µM
12,NCc1cccc(NC(=O)[C@H](NS(=O)(=O)Cc2ccccc2)c2ccc(OCc3ccccc3)cc2)c1,64.5 µM
13,CO[C@]1(C(=O)Nc2ccc3c(c2)C(=O)OC3)CCCNC1,> 25 µM
14,NCc1ccc(C[C@H](NC(=O)c2ccccc2)C(=O)N2CCCCC2)cc1,> 99.5 µM
15,CS(=O)(=O)c1cccc(CNC(=O)[C@@H](NC(=O)OCc2ccccc2)c2ccc(OCc3ccccc3)cc2)c1,> 99.5 µM
16,O=C(Nc1ccc2c(c1)CN[C@H]2C[C@H](O)CO)c1cc(Cl)cc2[nH]ncc12,0.198 µM
17,O=C(Nc1cc(Cl)cc(C(=O)N[C@H](c2nn[nH]n2)C2CCNCC2)c1)OCc1ccccc1,> 99.5 µM
18,CN(C)C[C@@]1(O)CCN(C(=O)c2cc(C=O)c[nH]2)C1,> 99.5 µM
19,CN1CCN(C2CN(C(=O)c3cc(Br)cc(C=O)c3)C2)CC1,> 99.5 µM
20,Brc1cnc(Sc2ncc[nH]2)nc1,> 99.5 µM
21,O=c1c(N2CC[C@H](CO)C2)nccn1C1CC1,> 99.5 µM
22,O=C(Nc1ccc2c(c1)CNC2)N1CC[C@H](CC(F)(F)F)C1,> 25 µM
23,CN1C(=O)Cc2cc(C(=O)Nc3ccc4c(c3)CNC4)ccc21,> 25 µM
24,O=C(c1cc(Cl)ccc1NS(=O)(=O)c1ccc(Oc2ccccc2Cl)cc1)N1CCCC1,> 99.5 µM

row,SMILES,IC50
1,N#C[C@H](Nc1ccc2c(c1)CNC2)c1cncc2ccccc12,3.87 µM
2,CCn1cc(-c2c[nH]c3ncccc23)nc(N2CC[C@@H](CO)C2)c1=O,> 99.5 µM
3,c1ccc([C@@H]2C[C@H]3C[C@@H]2C[C@H]3NCc2n[nH]c3ccccc23)cc1,> 99.5 µM
4,N#Cc1cc(-c2ccc3[nH]c(C(=O)O)cc3c2)cc(N2CCCC2)c1,> 99.5 µM
5,C=CC[C@H](Nc1cc(Cl)cc(NC(=O)OCc2ccccc2)c1)c1cccc(CN)c1,7.69 µM
6,Cc1ncc(NC(=O)OCc2ccccc2)cc1C(=O)Nc1cccc(CN)c1,> 99.5 µM
7,CN(C)CCc1ccc(CNC(=O)[C@@H](NC(=O)OCc2ccccc2)c2ccc(OCc3ccccc3)cc2)cc1,54.6 µM
8,Cc1cc(C(=O)Nc2cccc(CN)c2)c2sc(N)nc2n1,> 99.5 µM
9,Cc1cc(C(=O)Nc2cccc(CN)c2)c(NC(=O)[C@H]2CCCO2)s1,5.86 µM
10,N#C[C@H](Nc1cccc(-c2nn[nH]n2)c1)c1cc(Cl)cc2[nH]ncc12,> 99.5 µM
11,Cc1ocnc1COc1ccc(S(=O)(=O)Nc2ccc(Cl)cc2C(=O)O)cc1,> 99.5 µM
12,CC(=O)Nc1cccc(C(=O)Nc2ccc3c(c2)CNC3)c1,0.863 µM
13,N#C[C@H](Nc1ccc2c(c1)CNC2)c1cc(Cl)cc2c1OCC2,2.44 µM
14,C#C[C@H](Nc1cc([C@H]2CCOC2)ccn1)c1cc(C2CC2)n(C)n1,> 25 µM
15,O=C(O)Cc1cn2nc(-c3cc(Cl)cc(NC(=O)OCc4ccccc4)c3)ccc2n1,> 99.5 µM
16,O=C(Nc1ccc2c(c1)CNC2)N1CCC[C@@H]1COCc1ccccc1,> 25 µM
17,CC(C)(C)OC(=O)NCc1ccc(I)c(NC(=O)c2cc(Cl)cc(NC(=O)OCc3ccccc3)c2)c1,> 99.5 µM
18,NCc1cccc(NC(=O)c2cc(Cl)ccc2-n2cncn2)c1,17.7 µM
19,Cc1c(CN)cccc1NS(=O)(=O)c1ccc(Oc2ccccc2Cl)cc1,> 99.5 µM
20,O=C(Nc1cc2c(c(C3=CC[C@H](O)CC3)c1)CNC2)c1cc(Cl)cc2[nH]ncc12,0.065 µM and 0.041 µM
21,CN(C)CCOc1ccc(Cl)cc1C(=O)Nc1cccc(CN)c1,25.6 µM
22,O=C(Nc1cc(Cl)cc(-c2ccc(C3(C(=O)O)CCNCC3)cc2)c1)OCc1ccccc1,> 99.5 µM

# Second part, the compound after the results:
row,IC50,SMILES
1,> 99.5 µM,O[C@@H]1CN(Cc2c[nH]c3ccccc23)C[C@H]1c1c[nH]c2ccccc12
2,> 25 µM,O=C1OCc2ccc(NC(=O)[C@H]3CCNC3)cc21
3,> 25 µM,O=C1Cc2c(cccc2C(=O)NC2CCC3(CC2)COC3)N1
4,> 99.5 µM,O=C(Nc1cc(Cl)cc(C(=O)NC2(c3nn[nH]n3)CCCC2)c1)OCc1ccccc1
5,0.886 µM,NCc1cccc(NC(=O)c2cc(Cl)cc3[nH]ncc23)c1
6,> 99.5 µM,COc1ccc(N2CCC(NS(=O)(=O)c3ccc(Cl)cc3C(=O)O)CC2)cc1
7,> 99.5 µM,CCn1c(=O)c(N2CC[C@H](CO)C2)nc2cc(C(=O)NCc3ccccc3)ccc21
8,> 99.5 µM,O=C(O)c1cc(Cl)ccc1NS(=O)(=O)c1ccc(N[C@H]2CCCOC2)nc1
9,81.6 µM,CCN1CCN(c2ccc(NC(=O)C3CCN(c4ccc(C=O)cc4)CC3)cc2)CC1
10,> 99.5 µM,Cc1c(C(=O)Nc2cc(-c3ccccn3)c(Br)cn2)cc(C2CC2)n1C
11,> 99.5 µM,NCc1cccc(NC(=O)[C@@H](NC(=O)OCc2ccccc2)c2ccc(F)cc2)c1
12,3.3 µM,O=C(Nc1ccc2nc[nH]c2c1)c1cc(F)cc2[nH]ncc12
13,> 99.5 µM,O=C(O)c1cc2cccc(Cc3c[nH]c4ccc(Cl)cc34)c2[nH]1
14,1.49 µM,O=C1CCc2cc(C(=O)Nc3ccc4c(c3)CNC4)cc(F)c2N1
15,5.01 µM,N[C@H]1CC[C@H](c2ccc(NC(=O)c3cc(Cl)cc(NC(=O)OCc4ccccc4)c3)cc2)C1
16,97.2 µM,CCn1cc(-c2ccc([C@@H](NC(=O)OCc3ccccc3)C(=O)Nc3cccc(CN)c3)cc2)cn1
17,> 99.5 µM,O=C(Nc1cc(Cl)cc(C(=O)Nc2cnc3n2CCNC3)c1)OCc1ccccc1

row,IC50,SMILES
1,> 99.5 µM,NCc1cccc(NC(=O)[C@H](NC(=O)OCc2ccccc2)c2cccc(OCc3ncccn3)c2)c1
2,> 25 µM,CC(C)n1cc(C(=O)Nc2cc(-c3cccnc3)ccn2)c2ccccc21
3,2.51 µM,O=C(Nc1ccc([C@H]2CCNC2)cc1)c1cc(Cl)cc2[nH]ncc12
4,> 99.5 µM,Cn1nc(C2CCN(C(=O)c3ccccc3CSc3nnc[nH]3)CC2)cc1O
5,> 99.5 µM,Clc1ccc(-c2cc(CN3CCC(c4cscn4)CC3)[nH]n2)cc1
6,> 99.5 µM,c1cnc2[nH]cc(C3CCN(Cc4c[nH]c5cnccc45)CC3)c2c1
7,> 99.5 µM,NCc1cccc(NC(=O)[C@@H](NC(=O)OCc2ccccc2)c2cccc(-c3cncnc3)c2)c1
8,77.5 µM,CS(=O)(=O)c1ccc(-c2ccc(S(=O)(=O)Nc3ccc(Cl)cc3C(=O)O)cc2)cc1
9,70.7 µM,O=C(O)c1cc(Cl)ccc1NS(=O)(=O)c1ccc(Oc2ccccc2)cc1
10,2.53 µM,NCCc1ccc([C@H]2C[C@@H]2c2cc(Cl)cc(NC(=O)OCc3ccccc3)c2)cc1
11,> 99.5 µM,O=C(O)c1cc(Cl)ccc1S(=O)(=O)NC1CCN(C(=O)c2ccccc2C(F)(F)F)CC1
12,> 99.5 µM,NCc1cccc(NC(=O)[C@@H](NC(=O)OCc2ccccc2)c2ccc(OCc3cnccn3)cc2)c1
13,2.89 µM,Cc1[nH]c2ccccc2c1CN1CCC(c2nc3ccccc3s2)CC1
14,0.047 µM and 0.032 µM,CSc1cc2c(cc1NC(=O)c1cc(F)cc3[nH]ncc13)CNC2
15,> 99.5 µM,O=C(Nc1cc(Cl)cc(C(=O)NCC[C@H]2COCCN2)c1)OCc1ccccc1
16,0.199 µM,O=C(NCC(F)F)[C@H](Nc1ccc2c(c1)CNC2)c1cc(F)cc2[nH]ccc12

# From ChEMBL document CHEMBL5604062, “ASAP - ZIKV NS2B-NS3 protease fluorescence dose response” (2024)
